The values that follow come from patent EP0419081A2, “Method for protein binding enzyme complementation assays” (MICROGENICS CORPORATION, priority 1989, dated 1991).

Like-named read-outs stand apart in the source and are kept apart here.

One series concerns the target T1, FBP (Bos taurus, UniProt P02702).
T1 construct: purchased Scripps
Put plainly: Folate dose response. The settings on record: for 5′- 9′: rate OD₄₂₀ 5 to 9 min, FBP 1:1000, ED14-folate #34. The class given is biochemical. How it is done: The following buffer systems and reagents were used and will be abbreviated as stated below: • 1. Sample buffer; 100 mM sodium phosphate, 20 mM sodium azide and 0.2% BSA. • 2. Assay buffer pH 7.0; 10 mM ethylene glycol tetraacetic acid, 2 mM magnesium acetate, 20 mM sodium azide, 150 mM sodium phosphate, 100 mM potassium phosphate, 0.05% Tween 20, 0.05 mM dithiothreitol, adjusted to pH 7.0. • 3. EA; enzyme acceptor • 4. ED; enzyme donor • 5. FBP Scripps; folate binding protein from Scripps 2.25 mg/ml stock • 6. CPRG; chlorophenol red β-D galactopyranoside • 7. ONPG: 2-nitrophenol β-D galactopyranoside
A folate dose response was elicited as follows. The following reagents were prepared; EA at a concentration of 3750 nM in Assay buffer p8 7.0, ED14-folate (fraction #34) at a concentration of 26.66 nM in Assay/ONPG buffer pH 7.0, FBP at a dilution of 1:1000 in sample buffer and folic acid standards at 0, 2.5, 5.0, 10.0 and 20.0 ng/ml in sample buffer. […] Rates were calculated by subtracting the OD₄₂₀ at 5 min from the OD₄₂₀ at 9 min.

For series [1], the system named is anti-T4 antibody (T4-pool 393A). Put plainly: Immunochemical testing on the Encore, T4 conjugates. The class given is biochemical. How it is done: The immunochemical testing was performed on the Encore. […] The ligand concentrations employed are indicated in the legend to the table. The ED and antibody were preincubated on the rotor for 15 min at 37°C. All antibody concentrations were assayed in duplicate. No correction was made for variations of total protein in the assays.

The next series relates to EA23. How it is done:
This example illustrates an immunoassay for thyroxine as analyte using H6-thyroxine conjugate as enzyme-donor, EA23 as enzyme-acceptor, anti-thyroxine antibody and a series of concentrations of thyroxine.
Reagents for the assay were prepared as follows: L-thyroxine standard: 2.6 mg L-thyroxine (Sigma Chemical, St. Louis, MO) was dissolved in 200 µl absolute ethanol and 800 µl 0.15M NaHCO₃ added and the mixture stored at 25°C. Two fold dilutions of thyroxine were prepared in ethanol: 0.15M NaHCO₃ (1:4). L-thyroxine antibody: Antisera to thyroxine (T4) was purchased from Western Chemical Research Corp., Denver, CO. Several lots were tested for titer and an equilibrium constant determined in a radio-immunoassay with IgM Sorb (Enzyme Center, Malden, MA). […] EA23 acceptor-enzyme: 6.3X10-⁷M in storage buffer. Substrate: o-nitrophenyl-β-D-galactopyranoside (ONPG) was dissolved in 2.5 X Z buffer to a final concentration 10 mg/ml solution.
The assay was performed in microtiter plates (Dynatech Cat. #001-012-9200 American Scientific Products, Sunnyvale, CA) and read on a Titertak Multiscan microtiter plate reader fitted with a 414 nm filter (Flow Laboratories, Rockville, MO). To each well was added 100 µl of PM2 buffer containing 0.05% Tween 20 (polyoxyethylene sorbitan monolaurate) (Sigma Chemical Co., St. Louis, MO). To each well was added sequentially 2.5 µl H6-thyroxine conjugate, 2.5 µl of anti-thyroxine antibody, 2.5 µl of the thyroxine standards and 40 µl of EA23.

The subject of a further series is EA. Put plainly: Equilibrium specific activity. It counts as biochemical. The settings on record: ED and EA incubated together for 18 hours.
A further series concerns anti-T4 antibody. The series can be described thus: Affinity constant by ED titration, Scatchard plot, T4 conjugates. It counts as binding. The settings on record: ED titration against fixed anti-T4 Ab, no secondary antibody. How it is done: The Ka was determined as follows: To determine the affinity constant of an antibody for an experimental ED conjugate, an ED titration against a fixed antibody is carried out. Antibody binding to the conjugated ED is monitored by inhibition of formation of active enzyme as indicated by a decrease in chromogenic substrate turnover. The resulting data is plotted in a Scatchard format (Bound/Free vs. [Bound]). The slope of the line generated is equal to ∼KA in L/mole.

Series [2] relates to analyte specific antiserum. The series can be described thus: Immunopurity by precipitation of the enzyme donor conjugate with antibody. The class given is binding. The settings on record: % of ED conjugate activity which can be removed by analyte specific antiserum.
Method: Immunopurity was determined by precipitation of the enzyme donor conjugate with anti-T4 antibody TgG Sorbheads. The ED is incubated with primary antibody at room temperature for 15 min on a rocker shaker. Secondary antibody is added and incubation continued for 15 min. The suspension is centrifuged and an aliquot of the supernatant is saved for the assay. The above cycle is repeated on the remaining supernatant for a total of five cycles. […] The ED concentration during incubation is 20 nM. Assay concentrations are EA 500 nM; ED, 4 nM; and ONPG, 1mg/ml. Immunopurity is expressed as percent of ED activity precipitable by primary antibody.

T1 sequence (P02702 20-234): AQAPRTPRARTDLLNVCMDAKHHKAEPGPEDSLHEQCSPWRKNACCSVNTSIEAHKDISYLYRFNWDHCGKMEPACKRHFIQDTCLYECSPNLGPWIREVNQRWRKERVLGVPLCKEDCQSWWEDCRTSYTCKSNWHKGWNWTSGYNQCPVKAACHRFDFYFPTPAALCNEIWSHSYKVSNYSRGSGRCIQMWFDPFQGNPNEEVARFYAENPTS

Consider `Nc1nc2ncc(CNc3ccc(C(=O)N[C@@H](CCC(=O)O)C(=O)O)cc3)nc2c(=O)[nH]1` [folic acid], for which, at FBP (folic acid standard 5.0 ng/ml), the “% Mod” value was 13.4%, the Net is 52 and the “5′- 9′” value stood at 388.5. For the same molecule, at FBP (folic acid standard 10.0 ng/ml), the “% Mod” value was 24.1%, the Net turned out to be 107 and the “5′- 9′” value was found to be 443.5. In addition, on FBP (folic acid standard 20.0 ng/ml), the “% Mod” value is on record as 40.0%, the Net is on record as 2255 and the “5′- 9′” value is reported as 562.
With “m-maleimide-benzoyl-L-Thyroxine-ED₄ conjugate [ED4T4]”, the “Immunochemical Testing %I 1/2Sat” value in series [1] (T4-pool 393A at 1:12,000, ED titrated until one-half of Ab binding sites saturated, no secondary antibody) is given as 34%. Besides, the “Immunochemical Testing (0.125 nM Sys [ED])” value in series [1] (maximum amount of complementation inhibition, ED system concentration 0.125 nM, Ab constant) is given as 47%. In addition, the OD₄₁₅ is reported as 0.001 with EA23 (Well 2: ED₄-T4 2.5 µl only, no EA); 0.595 in the series on EA23 (Well 3: ED₄-T4 2.5 µl, EA 40 µl); 0.300 with EA23 (Well 4: ED₄-T4 2.5 µl, Antibody 2.5 µl, EA 40 µl); 0.312 with EA23 (Well 5: ED₄-T4 2.5 µl, Antibody 2.5 µl, Thyroxine 6.25 µg/µl, EA 40 µl); 0.320 with EA23 (Well 6: ED₄-T4 2.5 µl, Antibody 2.5 µl, Thyroxine 12.5 µg/µl, EA 40 µl); 0.364 with EA23 (Well 7: ED₄-T4 2.5 µl, Antibody 2.5 µl, Thyroxine 25 µg/µl, EA 40 µl). Further, in the series on EA, the “Specific Activity (u/mg) (% ED4-T4) Equilibrium” value came to 100%. The “Ka (L/mole) x10-9” value in the series on anti-T4 antibody is 1.97 L/mole x10-9. The molecule further displayed an Immuno-Purity in series [2] of 96%.
